Reference: ChEMBL document CHEMBL4007425, “Drug Repurposing of Histone Deacetylase Inhibitors That Alleviate Neutrophilic Inflammation in Acute Lung Injury and Idiopathic Pulmonary Fibrosis via Inhibiting Leukotriene A4 Hydrolase and Blocking LTB4 Biosynthesis” (J Med Chem, 2017)
Calls of active or inactive are those of the source. The rule behind the calls is not given here.

What was measured:
[1] = test system: Mus musculus; assay: Anti-inflammatory activity in BLM-induced C57BL/6 mouse model of acute lung neutrophilic inflammation assessed as reduction neutrophil count at 50 mg/kg, ip qd for 7 days post BLM challenge measured on day 7; format: functional, organism-based
[2] = test system: Mus musculus; assay: Protection against BLM-induced lung fibrosis in C57BL/6 mouse assessed as reduction in deposition of collagen fibers at 10 and 25 mg/kg, ip qd for 7 days post BLM challenge measured on day 7 by Massons trichrome staining based method; format: functional, organism-based
[3] = test system: Mus musculus; assay: Protection against BLM-induced lung fibrosis in C57BL/6 mouse assessed as TGF-beta1 level at 25 mg/kg, ip qd for 7 days post BLM challenge measured on day 14 by ELISA (reference value: 99.30 pg/ml); format: functional
[4] = test system: Mus musculus; assay: Protection against BLM-induced lung fibrosis in C57BL/6 mouse assessed as TGF-beta1 level at 50 mg/kg, ip qd for 7 days post BLM challenge measured on day 14 by ELISA (reference value: 99.30 pg/ml); format: functional
[5] = test system: Mus musculus; assay: Anti-inflammatory activity in BLM-induced C57BL/6 mouse model of acute lung injury assessed as reduction in IL-6 level in BALF at 25 and 50 mg/kg, ip qd for 7 days post BLM challenge measured on day 7 by ELISA; format: functional, organism-based
[6] = test system: Mus musculus; assay: Anti-inflammatory activity in LPS-induced C57BL/6 mouse model of acute lung injury assessed as reduction in IL-1beta level pretreated intraperitoneally for 1 hr followed LPS challenge after 24 hrs by ELISA; format: functional
[7] = test system: Mus musculus; assay: Anti-inflammatory activity in LPS-induced C57BL/6 mouse model of acute lung injury assessed as intact alveolar structure at 10 to 50 mg/kg, ip pretreated for 1 hr followed LPS challenge measured after 24 hrs by hematoxylin and eosin staining based microscopy; format: functional, organism-based
[8] = test system: Mus musculus; assay: Anti-inflammatory activity in BLM-induced C57BL/6 mouse model of acute lung neutrophilic inflammation assessed as reduction in macrophage number in BALF at 25 and 50 mg/kg, ip qd for 7 days post BLM challenge measured on day 7; format: functional, organism-based
[9] = test system: Mus musculus; assay: Anti-inflammatory activity in LPS-induced C57BL/6 mouse model of acute lung injury assessed as reduction in pathological changes at 10 to 50 mg/kg, ip pretreated for 1 hr followed LPS challenge measured after 24 hrs by hematoxylin and eosin staining based microscopy; format: functional, organism-based
[10] = test system: Mus musculus; assay: Anti-inflammatory activity in BLM-induced C57BL/6 mouse model of acute lung injury assessed as reduction in IL-1beta level in BALF at 25 and 50 mg/kg, ip qd for 7 days post BLM challenge measured on day 7 by ELISA; format: functional, organism-based
[11] = test system: Mus musculus; assay: Anti-inflammatory activity in BLM-induced C57BL/6 mouse model of acute lung neutrophilic inflammation assessed as protein concentration in BALF at 50 mg/kg, ip qd for 7 days post BLM challenge measured on day 7 (reference value: 2.39 mg/ml); format: functional
[12] = test system: Mus musculus; assay: Anti-inflammatory activity in BLM-induced C57BL/6 mouse model of acute lung neutrophilic inflammation assessed as reduction neutrophil count at 25 mg/kg, ip qd for 7 days post BLM challenge measured on day 7; format: functional, organism-based
[13] = test system: Mus musculus; assay: Anti-inflammatory activity in BLM-induced C57BL/6 mouse model of acute lung neutrophilic inflammation assessed as reduction in total cell number in BALF at 25 and 50 mg/kg, ip qd for 7 days post BLM challenge measured on day 7; format: functional, organism-based
[14] = test system: Mus musculus; assay: Anti-inflammatory activity in LPS-induced C57BL/6 mouse model of acute lung injury assessed as reduction in total number of leucocytes in BALF at 10 to 50 mg/kg, ip pretreated for 1 hr followed LPS challenge measured after 24 hrs; format: functional, organism-based
[15] = test system: Mus musculus; assay: Protection against BLM-induced lung fibrosis in C57BL/6 mouse assessed as TGF-beta1 level at 50 mg/kg, ip qd for 7 days post BLM challenge measured on day 7 by ELISA (reference value: 75.39 pg/ml); format: functional
[16] = test system: Mus musculus; assay: Anti-inflammatory activity in LPS-induced C57BL/6 mouse model of acute lung injury assessed as reduction in protein concentration in BALF at 10 to 50 mg/kg, ip pretreated for 1 hr followed LPS challenge measured after 24 hrs; format: functional, organism-based

Row | SMILES | Activity [1] | Activity [2] | Activity [3] | Activity [4] | Activity [5] | Activity [6] | Activity [7] | Activity [8] | Activity [9] | Activity [10] | Activity [11] | Activity [12] | Activity [13] | Activity [14] | Activity [15] | Activity [16]
1 | CN(C)c1ccc(C(=O)NCCCCCCC(=O)NO)cc1 | Active | Active | 38.22 pg/mL | – | – | – | – | – | – | – | – | – | – | – | – | –
2 | O=C(CCCCCCC(=O)Nc1ccccc1)NO [VORINOSTAT] | – | – | – | 49.74 pg/mL | Active | Dose-dependent effect | Active | Active | Active | Active | 1.79 mg/mL | Active | Active | Active | 34.09 pg/mL | Active
